This passage reports IC50 results from PubChem BioAssay AID651672 (The Scripps Research Institute Molecular Screening Center, 2012).

Values joined by “and” are separate entries in the source; they are usually repeats but may differ in a detail not shown here. Equal values may be shown once. Active and inactive are the calls of the source. The rule behind the calls is not given here.

For this test, the target named is Perilipin-1 (Homo sapiens) (UniProt O60240). Put plainly: inhibitors of ABHD5-PLIN1 binding, dose response, counter-screen for ABHD5-PLIN5 interaction inhibitor project, biochemical, luminescence (AID 651672).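 Note: split Gaussia luciferase complementation between ABHD5 and PLIN1 fusion fragments.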 On the technique in general: The purpose of a counterscreen is to sort out artefacts and off-target activity.
Perilipin-1 (Homo sapiens), sequence (O60240 whole entry, looked up, the tested form may be a part): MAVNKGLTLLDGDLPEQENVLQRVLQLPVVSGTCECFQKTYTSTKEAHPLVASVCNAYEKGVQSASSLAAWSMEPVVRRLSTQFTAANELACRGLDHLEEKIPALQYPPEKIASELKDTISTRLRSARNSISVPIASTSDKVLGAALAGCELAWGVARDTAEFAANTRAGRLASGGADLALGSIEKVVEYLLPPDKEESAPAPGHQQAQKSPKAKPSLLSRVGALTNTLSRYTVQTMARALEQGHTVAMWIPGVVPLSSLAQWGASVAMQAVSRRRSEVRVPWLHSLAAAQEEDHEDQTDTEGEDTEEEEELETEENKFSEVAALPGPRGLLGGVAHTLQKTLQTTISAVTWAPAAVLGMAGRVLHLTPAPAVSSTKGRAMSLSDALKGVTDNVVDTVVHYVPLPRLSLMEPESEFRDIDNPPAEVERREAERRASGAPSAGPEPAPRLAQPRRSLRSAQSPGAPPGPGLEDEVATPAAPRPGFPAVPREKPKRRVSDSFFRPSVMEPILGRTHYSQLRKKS
As a reminder, the IC50 is the concentration that inhibits the measured activity by half. For the compound `COc1ccc(OCc2cn(CC(=O)c3ccc(O)cc3)nn2)cc1`, the half-maximal inhibitory concentration (IC50) was 3770 nM.

Take `CC(=O)C1=C(c2cccc([N+](=O)[O-])c2)N(C(C)=O)n2c(C)nnc2S1`: the IC50 is 2470 nM.

On to `O=C1/C(=C/c2cccnc2)CC/C1=C\c1cccnc1`, for which the IC50 was 5830 nM.

Regarding `CCC(=O)Nc1cccc(C(=O)/C=C/c2ccccc2)c1`, the IC50 is 1980 nM.

As to `NC(=O)C(C(=O)/C=C/c1ccc(Cl)cc1)=C1SCCS1`, the IC50 result is “inactive”.

Turning to `Cc1ccc(S(=O)(=O)N2C[C@@]3(O)Cn4c(=O)ccc(=O)n4C[C@@]3(OC(=O)NCC3CCCCC3)C2)cc1`, the IC50 is 6220 nM.

As to `Cc1ccc(O)c(C(=O)C=Cc2ccccc2)c1`, the IC50 is 2460 nM.

As for `CN1CCC[C@@H]1CCO[C@](C)(c1ccccc1)c1ccc(Cl)cc1`, the IC50 entry was “inactive”.

On to `CC(=O)Oc1c(Cl)cc(N(C(C)=O)S(=O)(=O)c2ccccc2)c2ccccc12`, for which the IC50 is 3880 nM.

Take `CC(=O)Cc1cc(O)c2ccccc2c1OC(=O)c1ccc(Br)cc1`: the concentration for half-maximal inhibition (IC50) was 1600 nM.

`NC(=O)CCN1CCN(CCOC2Cc3cc(Cl)ccc3Sc3ccccc32)CC1` (configuration not stated): the IC50 result was “inactive”.

As to `CC(C)(C)NC(=O)C(c1ccncc1)n1c(=O)c(-c2ccco2)nc2ccccc21` (configuration not stated), the IC50 was 2420 nM.

Turning to `N#Cc1ccc(C(C(=O)NC2CCCCC2)n2c(=O)c(-c3ccco3)nc3ccccc32)cc1` (configuration not stated), the IC50 is 1920 nM.

Take `Cc1ccc(SC2=C(Sc3ccc(C)cc3)C(=O)c3ccccc3C2=O)cc1`: the half-maximal inhibitory concentration (IC50) is 6720 nM.

Turning to `O=C1NC(=O)N(Cc2ccc(F)cc2)C(=O)/C1=C\C=C\c1ccco1`, the IC50 was 1690 nM.

For `Cc1ccc(/C(O)=C2/C(=O)C(=O)OC2c2ccc(Cl)cc2)cc1` (configuration not stated), the IC50 is 9380 nM.

As for `CC(C)(C)NC(=O)C(c1ccc(C#N)cc1)n1c(=O)c(-c2ccco2)nc2ccccc21` (configuration not stated), the IC50 was 1410 nM.

On to `O=c1[nH]c(C2CCN(S(=O)(=O)c3ccc(F)cc3)CC2)nc2c1nnn2Cc1ccc2c(c1)OCCO2`, for which the IC50 result is “inactive”.

In the case of `COc1ccc(-c2cc(N)n(S(=O)(=O)c3c(F)c(F)c(F)c(F)c3F)n2)cc1OC`, the IC50 is 9950 nM.

Regarding `CC(=O)Nc1ccc(OCc2cn(CC(=O)c3ccc(O)cc3)nn2)cc1`, the IC50 was 2470 nM.

For the compound `C=CC(=O)N1c2ccccc2Sc2ccc(NC(=O)OCC)cc21`, the IC50 is 5010 nM.

In the case of `CN1C(=O)/C(=C/C=C/c2ccco2)C(=O)NC1=S`, the IC50 was 5880 nM.

`O=c1[nH]c(C2CCN(S(=O)(=O)c3ccc(S(=O)(=O)NC4CC4)cc3)CC2)nc2c1nnn2Cc1ccc(F)cc1`: the IC50 is 3560 nM.

As to `O=C(COc1ccccc1Cl)Nc1ccc(N2CCCC2)cc1`, the IC50 is > 39900 nM (inactive).

Turning to `Cc1ccc(C(=O)c2coc3c2C(=O)C(=O)c2ccccc2-3)cc1`, the IC50 was 3880 nM.

As to `CCCCCCC=C1CCC(CN2CCCC2)C1=O` (configuration not stated), the IC50 was 1370 nM.

With `COC(=O)c1ccc(Cn2cc(/C=C\[N+](=O)[O-])c3ccccc32)o1`, the IC50 is > 13300 nM (inactive).

As for `CCC1(C)N=C(c2ccc3c(c2)OCO3)CC(c2ccccc2O)N1` (configuration not stated), the 50% inhibitory concentration (IC50) is 1060 nM.

Turning to `CCOC(=O)/C(=C\c1ccc(Cl)cc1)c1nc2sc(C)c(C)c2c(=O)[nH]1`, the IC50 was 525 nM.

In the case of `N#Cc1ncc(Cc2ccccc2)nc1C#N`, the IC50 entry is “inactive”.

Take `O=C(NC1CCCCC1)C(c1ccc(-c2ccccc2)cc1)n1c(=O)c(-c2ccco2)nc2ccccc21` (configuration not stated): the IC50 is 1880 nM.

Regarding `CCN1CCN(Cc2ccc(NC(=O)c3ccc(C)c(/C=C/c4cnc(Nc5cc(N6CCNCC6)nc(C)n5)cn4)c3)cc2C(F)(F)F)CC1`, the IC50 was 3420 nM.

Turning to `O=C(NCc1ccccc1)C(c1ccc(C(F)(F)F)cc1)n1c(=O)c(-c2ccco2)nc2ccccc21` (configuration not stated), the IC50 is 1590 nM.

On to `Cc1cccc(C)c1NC(=O)C(c1ccc(-c2ccccc2)cc1)n1c(=O)c(-c2ccco2)nc2ccccc21` (configuration not stated), for which the IC50 is 1480 nM.

On to `CC1Sc2ccc(S(=O)(=O)N3CCC(C(=O)NCc4ccc(Cl)cc4)CC3)cc2NC1=O` (configuration not stated), for which the half-maximal inhibitory concentration (IC50) is 8370 nM.

As to `Cc1cccc(C)c1NC(=O)C(c1ccc(C(F)(F)F)cc1)n1c(=O)c(-c2ccco2)nc2ccccc21` (configuration not stated), the IC50 was 2220 nM.

For the compound `Cc1cccc(C)c1NC(=O)C(c1ccc(C#N)cc1)n1c(=O)c(-c2ccco2)nc2ccccc21` (configuration not stated), the IC50 was 2660 nM.

For `CCCCC(=O)NC(c1cccc([N+](=O)[O-])c1)c1ccc2cccnc2c1O` (configuration not stated), the IC50 result is “inactive”.

Turning to `COc1ccc(C(C(=O)NC(C)(C)C)n2c(=O)c(-c3ccco3)nc3ccccc32)cc1` (configuration not stated), the IC50 is 1820 nM.

As for `Cc1cc(C)c(NC(=O)C[N+](C)(C)CC(O)COc2cccc3ccccc23)c(C)c1` (configuration not stated), the IC50 is 7990 nM.

`CC1=CC(C)(C)Nc2ccc(OC(=O)c3cccnc3)cc21`: the IC50 was 1930 nM.

For the compound `CC1=CC(C)(C)Nc2ccc(OC(=O)CN3C(=O)CCC3=O)cc21`, the concentration for half-maximal inhibition (IC50) is 1720 nM.

Regarding `CCOC(=O)N1CCN(C(=O)C[C@@H]2C[C@@]3(C(=O)OCC)CCC=C3N(Cc3ccc(Cl)cc3Cl)C2=O)CC1`, the IC50 was 9780 nM.

In the case of `CC(=O)Cc1cc(O)c2ccccc2c1OC(=O)c1ccccc1`, the IC50 is 2630 nM.

In the case of `Oc1ccc2sc(-c3ccccc3O)c(-c3ccc(OCCN4CCCCC4)cc3)c2c1`, the IC50 was 7150 nM.

Consider `CCCCNC(=O)Nc1ccc2c(c1)N(C)C(=O)c1ccccc1S2`, for which the half-inhibitory concentration (IC50) is 3190 nM.

Turning to `CN(C)CCOc1ccc(/C(=C(/CCCl)c2ccccc2)c2ccccc2)cc1`, the IC50 was 1140 nM.

For the compound `CCOc1cc(N)c(Cl)cc1C(=O)NCC1CN(Cc2ccc(F)cc2)CCO1` (configuration not stated), the IC50 is 1970 nM.

On to `O=C(NC1CCCCC1)C(c1ccccc1F)n1c(=O)c(-c2ccco2)nc2ccccc21` (configuration not stated), for which the half-inhibitory concentration (IC50) is 1900 nM.

Turning to `O=C1CC(c2ccc(Cl)cc2)Oc2ccc(Cl)cc21` (configuration not stated), the concentration for half-maximal inhibition (IC50) is 2950 nM.

Take `CCOC(=O)C1CCCN(C(=O)c2cc(Nc3ccc(OC)cc3)nc3ccccc23)C1` (configuration not stated): the IC50 result is “inactive”.

Turning to `CCCc1nc(C)c2c(=O)[nH]c(-c3cc(S(=O)(=O)N4CCN(CC)CC4)ccc3OCC)nn12`, the IC50 was 2450 nM.

Turning to `Cc1cccc(C)c1OCc1cn(CC(=O)c2ccc(O)cc2)nn1`, the IC50 was 2980 nM.

Turning to `C#CCN(C[C@@H]1[C@@H](OC(=O)NCc2ccccc2F)[C@@H](OC(=O)NCc2ccccc2F)Cn2c(=O)ccc(=O)n21)S(=O)(=O)c1ccc(C)cc1`, the IC50 was 4510 nM.

As to `COc1ccc(C(C(=O)Nc2ccc3c(c2)OCCO3)n2c(=O)c(-c3ccco3)nc3ccccc32)cc1` (configuration not stated), the IC50 was 5430 nM.

Take `O=C(Nc1ccc2c(c1)OCCO2)C(c1ccnc2ccccc12)n1c(=O)c(-c2ccco2)nc2ccccc21` (configuration not stated): the IC50 entry was “inactive”.

`O=C(NCc1ccccc1)C(c1cccc2ccccc12)n1c(=O)c(-c2ccco2)nc2ccccc21` (configuration not stated): the IC50 is 2060 nM.

With `O=C(NCc1ccccc1)C(c1ccccc1)n1c(=O)c(-c2ccco2)nc2ccccc21` (configuration not stated), the IC50 was 2500 nM.

Consider `O=C1NC(=S)NC(=O)C12C(c1ccccc1)NC(=S)NC2c1ccccc1` (configuration not stated), for which the 50% inhibitory concentration (IC50) is 4340 nM.

For the compound `COc1cc2c(cc1OC)C(C)N(CCc1ccc(Cl)cc1)CC2` (configuration not stated), the IC50 result is “inactive”.

In the case of `O=C(NC1CCCCC1)C(c1ccnc2ccccc12)n1c(=O)c(-c2ccco2)nc2ccccc21` (configuration not stated), the IC50 was 2250 nM.

In the case of `COc1ccc(NC(=O)C(c2cccc3ccccc23)n2c(=O)c(-c3ccco3)nc3ccccc32)cc1` (configuration not stated), the IC50 result is “inactive”.

Turning to `CN(C)CCOc1ccc(-c2c(-c3ccccc3)sc3ccccc23)cc1`, the IC50 entry is “inactive”.

On to `COC(=O)c1cc(=O)n(Cc2ccco2)c(=Nc2ccc(F)cc2)s1`, for which the IC50 was 3190 nM.

On to `COc1ccc(C(C(=O)NCc2ccccc2)n2c(=O)c(-c3ccco3)nc3ccccc32)cc1` (configuration not stated), for which the IC50 is 2170 nM.

Regarding `C#CCN(C[C@@H]1[C@@H](OC(=O)NCc2ccc(OC)c(OC)c2)[C@@H](OC(=O)NCc2ccc(OC)c(OC)c2)Cn2c(=O)ccc(=O)n21)S(=O)(=O)c1ccc(C)cc1`, the IC50 was 4590 nM.

Regarding `CC(O)CC(=O)OC[C@]12CC[C@H]3[C@@](C)(CC[C@H]4C(C)(C)CCC[C@]34C)[C@@H]1CC(C1=CC(=O)OC1O)O2` (some centres not stated), the IC50 is 1250 nM.

On to `CCOC(=O)c1c(NC(C)=O)sc2c1CCC(C=O)=C2Sc1ccccc1`, for which the IC50 is 3110 nM.

`N#Cc1ccccc1OCc1cn(CC(=O)c2ccc(O)cc2)nn1`: the IC50 was 4120 nM.

Regarding `CC(C)(C)NC(=O)C(c1cc2ccccc2o1)n1c(=O)c(-c2ccco2)nc2ccccc21` (configuration not stated), the IC50 is 1930 nM.

`CCCCCNC(=O)C(c1cc2ccccc2o1)n1c(=O)c(-c2ccco2)nc2ccccc21` (configuration not stated): the IC50 was 1480 nM.

With `CCOC(=O)C1C(OC(=O)c2ccccc2)CC2CCC1N2C` (configuration not stated), the IC50 entry is “inactive”.

As for `COc1ccc(NC(=O)C(c2ccc(OC)cc2)n2c(=O)c(-c3ccco3)nc3ccccc32)cc1` (configuration not stated), the IC50 is 7700 nM.

With `CN(C)CCCN(C(=O)CCc1ccccc1)c1nc2ccc(Cl)cc2s1`, the IC50 is 6980 nM.

As to `NC(=NCCCCCCN=C(N)/N=C(\N)Nc1ccc(Cl)cc1)/N=C(\N)Nc1ccc(Cl)cc1`, the IC50 was 2860 nM and 2310 nM.

In the case of `CCOC1=CC2=C(C(=O)C(Cl)=CC2=O)[C@@H]2CN(S(=O)(=O)c3ccc(C)cc3)[C@@H](c3ccccc3)[C@H]12`, the half-maximal inhibitory concentration (IC50) was 1350 nM.

In the case of `CCC(C)NC(=O)Nc1ccc2c(c1)N(C)C(=O)c1ccccc1S2` (configuration not stated), the IC50 is 3700 nM.

For `Cc1nnc(NC(=O)c2nc(S(=O)(=O)Cc3ccccc3C)ncc2Cl)s1`, the IC50 was 3920 nM.

Consider `COc1ccc(C(C(=O)Nc2c(C)cccc2C)n2c(=O)c(-c3ccco3)nc3ccccc32)cc1` (configuration not stated), for which the concentration for half-maximal inhibition (IC50) was 1880 nM.

In the case of `CCN(CC)CCC(C)OC(c1ccccc1)c1ccccc1` (configuration not stated), the IC50 is 2600 nM.

Take `CC1CCN(S(=O)(=O)c2ccc(NC(=O)Cc3cccs3)cc2)CC1`: the IC50 was 7020 nM.

On to `CC1CCN(S(=O)(=O)c2ccc(NC(=O)Cc3ccccc3)cc2)CC1`, for which the half-maximal inhibitory concentration (IC50) is 5330 nM.

Regarding `CC(=O)Oc1c(Cl)c(N2CCOCC2)c(OC(C)=O)c2ccccc12`, the IC50 was 4440 nM.

As to `O=C1C(=O)c2c(C(=O)c3ccccc3)coc2-c2ccccc21`, the IC50 was 4970 nM.

Consider `COc1cc(OC)cc(C(=O)NC(=S)N(Cc2ccccc2)C(C)C)c1`, for which the IC50 result was “inactive”.

As to `CC(=O)Nc1ccc(S(=O)(=O)N2c3ccc(F)cc3CCC2C)cc1` (configuration not stated), the IC50 entry was “inactive”.

Consider `CC1=CC2C(C(O)CC3(C)C2CC(C)C32OCOC23COCO3)C2(C)C/C(=C\O)C(=O)C=C12` (configuration not stated), for which the IC50 is 3510 nM.
